≈ marks a conversion by molar mass, not a printed value. Calls of active or inactive are those of the source. The calls are words filed in the database; no cut-off is given here.
Legend:
[1] = system: Staphylococcus aureus; assay: Antibacterial activity against Staphylococcus aureus at 200 ug/disk after 24 hrs by disk diffusion method; format: functional; conditions: for zone of inhibition at 200 µg/disc: read-out: DIZ
[2] = system: Staphylococcus aureus; assay: Antibacterial activity against Staphylococcus aureus after 24 hrs by microdilution susceptibility method; format: functional
[3] = system: Bacillus subtilis; assay: Antibacterial activity against Bacillus subtilis at 200 ug/disk after 24 hrs by disk diffusion method; format: functional; conditions: for zone of inhibition at 200 µg/disc: read-out: DIZ
[4] = system: Bacillus subtilis; assay: Antibacterial activity against Bacillus subtilis after 24 hrs by microdilution susceptibility method; format: functional
[5] = system: Micrococcus luteus; assay: Antibacterial activity against Micrococcus luteus at 200 ug/disk after 24 hrs by disk diffusion method; format: functional; conditions: for zone of inhibition at 200 µg/disc: Micrococcus luteus, 24 h, read-out: DIZ
[6] = system: Micrococcus luteus; assay: Antibacterial activity against Micrococcus luteus after 24 hrs by microdilution susceptibility method; format: functional
[7] = system: Escherichia coli; assay: Antibacterial activity against Escherichia coli at 200 ug/disk after 24 hrs by disk diffusion method; format: functional; conditions: for zone of inhibition at 200 µg/disc: read-out: DIZ
[8] = system: Escherichia coli; assay: Antibacterial activity against Escherichia coli after 24 hrs by microdilution susceptibility method; format: functional
[9] = system: Pseudomonas aeruginosa; assay: Antibacterial activity against Pseudomonas aeruginosa at 200 ug/disk after 24 hrs by disk diffusion method; format: functional; conditions: for zone of inhibition at 200 µg/disc: read-out: DIZ
[10] = system: Candida albicans; assay: Antifungal activity against Candida albicans at 200 ug/disk after 48 hrs by disk diffusion method; format: functional, organism-based
[11] = system: Candida albicans; assay: Antifungal activity against Candida albicans after 48 hrs by microdilution susceptibility method; format: functional, organism-based
[12] = biological target: T1, Dihydrofolate reductase (Bos taurus, UniProt P00376)
T1 sequence (P00376 whole entry): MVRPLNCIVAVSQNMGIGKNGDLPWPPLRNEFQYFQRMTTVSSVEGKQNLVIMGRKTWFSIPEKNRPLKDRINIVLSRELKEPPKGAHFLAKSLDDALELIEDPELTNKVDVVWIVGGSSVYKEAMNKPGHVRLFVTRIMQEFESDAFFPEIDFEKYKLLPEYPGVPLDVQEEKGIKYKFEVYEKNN
Description: Inhibition of bovine DHFR after 2 mins

[13] = biological target: T2, Dihydrofolate reductase (Homo sapiens, UniProt P00374)
T2 sequence (P00374 whole entry): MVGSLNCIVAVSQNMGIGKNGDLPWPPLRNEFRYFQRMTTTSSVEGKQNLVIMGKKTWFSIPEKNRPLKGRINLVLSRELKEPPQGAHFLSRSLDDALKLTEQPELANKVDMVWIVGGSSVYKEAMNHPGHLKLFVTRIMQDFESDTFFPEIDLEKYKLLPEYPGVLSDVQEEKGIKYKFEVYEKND
Description: Inhibition of human DHFR after 2 mins

[14] = system: Staphylococcus aureus; assay: Antibacterial activity against Staphylococcus aureus at 100 ug/disk after 24 hrs by disk diffusion method; format: functional
[15] = system: Bacillus subtilis; assay: Antibacterial activity against Bacillus subtilis at 100 ug/disk after 24 hrs by disk diffusion method; format: functional
[16] = system: HT-29; assay: Antitumor activity against human HT-29 cells after 48 hrs by SRB assay; format: functional; conditions: HT-29, 48 h
[17] = system: OVCAR-4; assay: Antitumor activity against human OVCAR4 cells after 48 hrs by SRB assay; format: functional; conditions: OVCAR-4, 48 h
[18] = Antitumor activity against human leukemia cells after 48 hrs by SRB assay; format: functional; conditions: Leukemia cell
[19] = Antitumor activity against human non small cell lung cancer cells after 48 hrs by SRB assay; format: functional; conditions: Cancer cell lines
[20] = Antitumor activity against human colon cancer cells after 48 hrs by SRB assay; format: functional; conditions: Cancer cell lines
[21] = Antitumor activity against human CNS cancer cells after 48 hrs by SRB assay; format: functional; conditions: Cancer cell lines
[22] = Antitumor activity against human melanoma cells after 48 hrs by SRB assay; format: functional; conditions: Melanoma cell
[23] = Antitumor activity against human ovarian cancer cells after 48 hrs by SRB assay; format: functional; conditions: Cancer cell lines
[24] = Antitumor activity against human renal cancer cells after 48 hrs by SRB assay; format: functional; conditions: Cancer cell lines
[25] = Antitumor activity against human prostate cancer cells after 48 hrs by SRB assay; format: functional; conditions: Cancer cell lines
[26] = Antitumor activity against human breast cancer cells after 48 hrs by SRB assay; format: functional; conditions: Cancer cell lines
[27] = system: Pseudomonas aeruginosa; assay: Antibacterial activity against Pseudomonas aeruginosa after 24 hrs by microdilution susceptibility method; format: functional
[28] = system: MDA-MB-468; assay: Antitumor activity against human MDA-MB-468 cells after 48 hrs by SRB assay; format: functional; conditions: MDA-MB-468, 48 h

C=CCSc1nc2ccc(NC(=O)/C=C/c3ccccc3)cc2c(=O)n1Cc1ccccc1
zone of inhibition at 200 µg/disc [1]: 16 mm | MIC [2]: 8 µg/mL (≈ 17.6 µM) | zone of inhibition at 200 µg/disc [3]: 18 mm | MIC [4]: 8 µg/mL (≈ 17.6 µM) | diameter of the inhibition zone (DIZ) [5]: 18 mm | MIC [6]: 8 µg/mL (≈ 17.6 µM) | zone of inhibition at 200 µg/disc [7]: 18 mm | MIC [8]: 8 µg/mL (≈ 17.6 µM) | diameter of the inhibition zone (DIZ) [9]: inactive | Activity [10]: inactive | Activity [11]: inactive | IC50 [12]: 0.7 µM | IC50 [13]: 0.5 µM

CC(=O)NS(=O)(=O)c1ccc(N)cc1 [SULFACETAMIDE]
MIC [2]: 1 µg/mL (≈ 4.67 µM) | zone of inhibition at 200 µg/disc [3]: 25 mm | MIC [4]: 2 µg/mL (≈ 9.34 µM) | zone of inhibition at 100 µg/disc ([14]; read-out: DIZ): 28 mm | zone of inhibition at 100 µg/disc ([15]; read-out: DIZ): 25 mm | IC50 [12]: 22 µM | IC50 [13]: 18 µM

O=C(/C=C/c1ccccc1)Nc1ccc2nc(SC/C=C/c3ccccc3)n(Cc3ccccc3)c(=O)c2c1
Activity [10]: inactive | GI50 [16]: 0.6 µM | GI50 [17]: 0.4 µM | GI50 [18]: > 100 µM | TGI [18]: > 100 µM | GI50 [19]: 2.2 µM | TGI [19]: 76.4 µM | GI50 [20]: 1.9 µM | TGI [20]: > 100 µM | GI50 [21]: 3 µM | TGI [21]: 37 µM | GI50 [22]: 2.2 µM | TGI [22]: 86.9 µM | GI50 [23]: 3.3 µM | TGI [23]: > 100 µM | GI50 [24]: 2.6 µM | TGI [24]: 68 µM | GI50 [25]: > 100 µM | TGI [25]: > 100 µM | GI50 [26]: 2.5 µM | TGI [26]: 68.6 µM | Activity [11]: inactive | IC50 [12]: 0.9 µM | IC50 [13]: 0.5 µM

O=c1c2cc([N+](=O)[O-])ccc2nc(SC/C=C/c2ccccc2)n1Cc1ccccc1
diameter of the inhibition zone (DIZ) [1]: inactive | diameter of the inhibition zone (DIZ) [3]: inactive | diameter of the inhibition zone (DIZ) [5]: inactive | zone of inhibition at 200 µg/disc [7]: 21 mm | zone of inhibition at 200 µg/disc [9]: 17 mm | MIC [27]: 16 µg/mL (≈ 37.3 µM) | Activity [10]: inactive | Activity [11]: inactive | IC50 [12]: 5 µM | IC50 [13]: 3 µM

CSc1nc2ccc(N(C/C=C/c3ccccc3)C/C=C/c3ccccc3)cc2c(=O)n1Cc1ccccc1
diameter of the inhibition zone (DIZ) [1]: inactive | zone of inhibition at 200 µg/disc [3]: 18 mm | MIC [4]: 8 µg/mL (≈ 15.1 µM) | diameter of the inhibition zone (DIZ) [5]: inactive | zone of inhibition at 200 µg/disc [7]: 16 mm | MIC [8]: 16 µg/mL (≈ 30.2 µM) | diameter of the inhibition zone (DIZ) [9]: inactive | Activity [10]: inactive | Activity [11]: inactive | IC50 [12]: 0.6 µM | IC50 [13]: 0.8 µM

O=c1c2cc([N+](=O)[O-])ccc2nc(S)n1Cc1ccccc1
zone of inhibition at 200 µg/disc [1]: 20 mm | MIC [2]: 4 µg/mL (≈ 12.8 µM) | zone of inhibition at 200 µg/disc [3]: 18 mm | MIC [4]: 8 µg/mL (≈ 25.5 µM) | zone of inhibition at 200 µg/disc [5]: 16 mm | MIC [6]: 16 µg/mL (≈ 51.1 µM) | diameter of the inhibition zone (DIZ) [7]: inactive | diameter of the inhibition zone (DIZ) [9]: inactive | Activity [10]: inactive | Activity [11]: inactive | IC50 [12]: 15 µM

GENTAMICIN
inhibition zone (IZ) [3]: 19 mm | inhibition zone (IZ) [14]: 21 mm | inhibition zone (IZ) [15]: 19 mm

C=CCSc1nc2ccc(N(C/C=C/c3ccccc3)C/C=C/c3ccccc3)cc2c(=O)n1Cc1ccccc1
zone of inhibition at 200 µg/disc [1]: 22 mm | MIC [2]: 4 µg/mL (≈ 7.2 µM) | zone of inhibition at 200 µg/disc [3]: 20 mm | MIC [4]: 4 µg/mL (≈ 7.2 µM) | diameter of the inhibition zone (DIZ) [5]: inactive | zone of inhibition at 200 µg/disc [7]: 16 mm | MIC [8]: 16 µg/mL (≈ 28.8 µM) | diameter of the inhibition zone (DIZ) [9]: inactive | Activity [10]: inactive | Activity [11]: inactive | IC50 [12]: 0.5 µM | IC50 [13]: 0.7 µM

Cc1ccc2nc(S)n(Cc3ccccc3)c(=O)c2c1
diameter of the inhibition zone (DIZ) [1]: inactive | zone of inhibition at 200 µg/disc [3]: 18 mm | MIC [4]: 4 µg/mL (≈ 14.2 µM) | zone of inhibition at 200 µg/disc [5]: 14 mm | zone of inhibition at 200 µg/disc [7]: 17 mm | MIC [8]: 4 µg/mL (≈ 14.2 µM) | zone of inhibition at 200 µg/disc [9]: 15 mm | Activity [10]: inactive | Activity [11]: inactive | IC50 [12]: 30 µM

O=c1[nH]cc(F)c(=O)[nH]1 [FLUOROURACIL]
GI50 [18]: 15.1 µM | TGI [18]: > 100 µM | GI50 [19]: > 100 µM | TGI [19]: > 100 µM | GI50 [20]: 8.4 µM | TGI [20]: > 100 µM | GI50 [21]: 72.1 µM | TGI [21]: > 100 µM | GI50 [22]: 70.6 µM | TGI [22]: > 100 µM | GI50 [23]: 61.4 µM | TGI [23]: > 100 µM | GI50 [24]: 45.6 µM | TGI [24]: > 100 µM | GI50 [25]: 22.7 µM | TGI [25]: > 100 µM | GI50 [26]: 76.4 µM | TGI [26]: > 100 µM

Nc1ccc2ncn(Cc3ccccc3)c(=O)c2c1
zone of inhibition at 200 µg/disc [1]: 24 mm | MIC [2]: 2 µg/mL (≈ 7.96 µM) | zone of inhibition at 200 µg/disc [3]: 28 mm | MIC [4]: 2 µg/mL (≈ 7.96 µM) | zone of inhibition at 200 µg/disc [5]: 20 mm | MIC [6]: 4 µg/mL (≈ 15.9 µM) | zone of inhibition at 200 µg/disc [7]: 22 mm | MIC [8]: 4 µg/mL (≈ 15.9 µM) | diameter of the inhibition zone (DIZ) [9]: inactive | Activity [10]: inactive | Activity [11]: inactive | IC50 [12]: 40 µM

CSc1nc2ccc(NC(=O)/C=C/c3ccccc3)cc2c(=O)n1Cc1ccccc1
diameter of the inhibition zone (DIZ) [1]: inactive | diameter of the inhibition zone (DIZ) [3]: inactive | diameter of the inhibition zone (DIZ) [5]: inactive | diameter of the inhibition zone (DIZ) [7]: inactive | diameter of the inhibition zone (DIZ) [9]: inactive | Activity [10]: inactive | GI50 [28]: 2.2 µM | GI50 [18]: 51.6 µM | TGI [18]: > 100 µM | GI50 [19]: 1.7 µM | TGI [19]: 80.9 µM | GI50 [20]: 34.5 µM | TGI [20]: > 100 µM | GI50 [21]: 1.9 µM | TGI [21]: 68.4 µM | GI50 [22]: 2.4 µM | TGI [22]: 26.9 µM | GI50 [23]: 1.1 µM | TGI [23]: > 100 µM | GI50 [24]: 2.9 µM | TGI [24]: > 100 µM | GI50 [25]: 1.6 µM | TGI [25]: > 100 µM | GI50 [26]: 3 µM | TGI [26]: > 100 µM | Activity [11]: inactive | IC50 [12]: 0.6 µM | IC50 [13]: 1 µM

C=CCSc1nc2ccc(NC/C=C/c3ccccc3)cc2c(=O)n1Cc1ccccc1
zone of inhibition at 200 µg/disc [1]: 19 mm | MIC [2]: 8 µg/mL (≈ 18.2 µM) | zone of inhibition at 200 µg/disc [3]: 20 mm | MIC [4]: 4 µg/mL (≈ 9.1 µM) | zone of inhibition at 200 µg/disc [5]: 16 mm | MIC [6]: 16 µg/mL (≈ 36.4 µM) | zone of inhibition at 200 µg/disc [7]: 18 mm | MIC [8]: 8 µg/mL (≈ 18.2 µM) | diameter of the inhibition zone (DIZ) [9]: inactive | Activity [10]: inactive | Activity [11]: inactive | IC50 [12]: 5 µM | IC50 [13]: 3 µM

— ChEMBL document CHEMBL1156232, “Non-classical antifolates. Part 2: synthesis, biological evaluation, and molecular modeling study of some new 2,6-substituted-quinazolin-4-ones” (Bioorg Med Chem, 2010)
